# Results taken from patent US7427625B2, “Substituted thiatriazaacenaphthylene-6-carbonitrile kinase inhibitors” (Janssen Pharmaceutica, N.V., priority 2006, dated 2008).
# Experiments:
# c-Src kinase = biological target: T1, c-Src kinase (Homo sapiens, UniProt P12931); experiment: c-Src Kinase Assay; type: biochemical
# T1 construct: purchased Upstate Biotechnology, Lake Placid, N.Y
# Protocol: A mixture of a 10× kinase buffer (80 mM MOPS at pH 7.0, 2 mM EDTA and 100 mM Magnesium Chloride), ATP (5 μM final from a 10 mM stock), a Cdc2 peptide KVEKIGEGTYVVYK (100 μM final from a 2.5 mM stock), γ-^33P ATP (10 μCi/μL stock) and water (20 μL/well) was added to each well of a Streptavidin Flashplate.
# Test compound in 100% DMSO (0.5 μL) was added to the appropriate wells. Diluted c-Src kinase (human) (Upstate Biotechnology, Lake Placid, N.Y.) (diluted in a buffer consisting of 20 mM MOPS at pH 7.0, 1 mM EDTA, β-mercaptoethanol (0.1%), Brij-35 (0.01%), glycerol (5%) and 1 mg/mL bovine serum albumin) (2.5 μL) was added to the wells to initiate the reactions. The reaction plates were incubated at 30° C. for 40 min. The reaction was terminated by the addition of a 3% phosphoric acid solution (5 μL). The reaction product (10 μL) was spotted onto a P30 filtermat and washed for 5 minutes in phosphoric acid (75 mM). The wash sequence was repeated two more times, followed with one final wash in methanol. The plates were then dried, sealed and read on the TopCount scintillation counter after adding 30 μL scintillation fluid.
# Percent inhibition was derived according to the procedure described in Example 2. For those compounds without an IC50, the percent inhibition results are shown at a test concentration of 2 μM.
# Aurora-A = biological target: T2, Aurora-A (Mus musculus, UniProt P97477); experiment: Aurora-A Screening Assay; type: biochemical, murine
# T2 construct: followed by the full length protein encoding the murine Aurora-A; polyhistidine (N); made in house; host or cells: sf9 insect cells
# T2 sequence (P97477 1-395): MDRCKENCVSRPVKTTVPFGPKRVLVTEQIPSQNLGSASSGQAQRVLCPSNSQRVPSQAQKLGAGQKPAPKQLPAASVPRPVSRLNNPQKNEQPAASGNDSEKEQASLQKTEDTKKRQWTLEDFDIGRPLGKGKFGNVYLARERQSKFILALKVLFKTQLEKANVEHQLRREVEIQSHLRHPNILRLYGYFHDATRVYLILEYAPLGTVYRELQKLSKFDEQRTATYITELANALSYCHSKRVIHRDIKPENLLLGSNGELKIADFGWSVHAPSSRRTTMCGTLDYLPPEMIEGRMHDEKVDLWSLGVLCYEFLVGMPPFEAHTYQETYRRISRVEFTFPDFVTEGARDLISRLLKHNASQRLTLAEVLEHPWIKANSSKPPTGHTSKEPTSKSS
# VEGF-R2 = biological target: T3, VEGF-R2 (Rattus norvegicus, UniProt O08775); experiment: VEGF-R2 Screening Assay; type: biochemical
# T3 construct: polyhistidine (N)
# T3 sequence (O08775 786-1343): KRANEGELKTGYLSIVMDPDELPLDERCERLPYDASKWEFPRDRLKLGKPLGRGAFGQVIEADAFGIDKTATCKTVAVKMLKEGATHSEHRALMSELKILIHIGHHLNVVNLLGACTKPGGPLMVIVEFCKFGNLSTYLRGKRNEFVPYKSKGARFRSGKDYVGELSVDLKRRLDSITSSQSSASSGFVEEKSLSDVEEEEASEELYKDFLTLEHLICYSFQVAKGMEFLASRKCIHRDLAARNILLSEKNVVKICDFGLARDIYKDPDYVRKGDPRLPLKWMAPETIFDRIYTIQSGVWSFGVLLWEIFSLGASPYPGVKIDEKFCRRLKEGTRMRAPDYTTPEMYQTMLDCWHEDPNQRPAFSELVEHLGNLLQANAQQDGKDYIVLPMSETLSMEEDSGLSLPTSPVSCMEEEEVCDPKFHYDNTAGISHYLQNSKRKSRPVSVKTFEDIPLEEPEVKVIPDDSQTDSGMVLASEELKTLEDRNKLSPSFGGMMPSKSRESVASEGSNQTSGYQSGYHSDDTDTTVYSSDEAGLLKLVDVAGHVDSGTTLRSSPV
# T1 sequence (P12931 whole entry): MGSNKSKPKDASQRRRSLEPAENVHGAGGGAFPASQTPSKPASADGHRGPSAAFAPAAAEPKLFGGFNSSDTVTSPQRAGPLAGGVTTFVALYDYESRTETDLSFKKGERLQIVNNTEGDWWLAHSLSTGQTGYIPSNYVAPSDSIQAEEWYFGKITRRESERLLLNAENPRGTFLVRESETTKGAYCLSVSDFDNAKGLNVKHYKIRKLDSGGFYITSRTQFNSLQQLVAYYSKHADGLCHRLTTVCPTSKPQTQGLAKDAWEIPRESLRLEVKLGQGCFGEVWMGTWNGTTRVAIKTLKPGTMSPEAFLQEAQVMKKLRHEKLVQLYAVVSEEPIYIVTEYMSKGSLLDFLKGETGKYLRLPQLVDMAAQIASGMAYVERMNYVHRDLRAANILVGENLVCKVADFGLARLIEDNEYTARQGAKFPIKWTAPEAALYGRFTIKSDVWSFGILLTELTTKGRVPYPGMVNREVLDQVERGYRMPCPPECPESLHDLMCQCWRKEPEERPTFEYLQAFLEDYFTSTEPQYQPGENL
Structure (SMILES),"inhibition at 2 µM (c-Src kinase; test concentration of 2 μM, read-out: c-Src percent inhibition)",IC50 (Aurora-A),IC50 (VEGF-R2),IC50 (c-Src kinase)
"Cc1nc2sc(C(=O)Nc3ccc(CN4CCOCC4)cc3)c3c2c(c1C#N)N(c1c(Cl)ccc2c1OCO2)C(=O)N3 [Cpd 9, 5-(5-chloro-benzo[1,3]dioxol-4-yl)-6-cyano-7-methyl-4-oxo-4,5-dihydro-3H-1-thia-3,5,8-triaza-acenaphthylene-2-carboxylic acid (4-morpholin-4-ylmethyl-phenyl)-amide]",11%,> 1 µM,> 10 µM,
"COc1cc(N2C(=O)Nc3c(C(=O)Nc4ccc(CN5CCOCC5)cc4)sc4ncc(C#N)c2c34)c(Cl)cc1Cl [Cpd 5, 6-cyano-5-(2,4-dichloro-5-methoxy-phenyl)-4-oxo-4,5-dihydro-3H-1-thia-3,5,8-triaza-acenaphthylene-2-carboxylic acid (4-morpholin-4-ylmethyl-phenyl)-amide]",,> 10 µM,> 100 µM,355 nM
"N#Cc1cnc2sc(C(=O)Nc3ccc(CN4CCOCC4)cc3)c3c2c1N(c1c(Cl)ccc2c1OCO2)C(=O)N3 [Cpd 4, 5-(5-chloro-benzo[1,3]dioxol-4-yl)-6-cyano-4-oxo-4,5-dihydro-3H-1-thia-3,5,8-triaza-acenaphthylene-2-carboxylic acid (4-morpholin-4-ylmethyl-phenyl)-amide]",,10.6 µM,> 10 µM,57.4 nM
